Source: patent publication US20060160070A1, “Association-based epitome design” (Microsoft Corporation, priority 2004, published 2006)

Assays:
HLA A*0101 [1] = molecular target: T1, HLA A*0101 (Homo sapiens, UniProt P04439, A114D/A174V/A182V/D101N/D185E/E176A/E190D/L180R/Q94H/R68K/S129P/T187R/V100A/V91M/W191G); assay: ITOPIA peptide binding assay; conditions: 1.11×10^−4M of peptide
T1 construct: purchased
Method: (§1) Peptide binding, off-rate and affinity were measured according to the protocols described in the ITOPIA Epitope Discovery System Customer Guide. To conduct the experiments, ninety-six (96) micro-titer plates coated with MHC molecules representing the HLA alleles listed in Table 9 were used to identify candidate peptides. Determinations were performed in duplicate using an ELISA plate reader. The peptide binding assay used measures the ability of individual peptides to bind to the HLA molecules under standardized optimal binding conditions. The assay was performed for all the test peptides across the selected HLA alleles. The test peptides identified as “binders” were characterized further in terms of affinity and dissociation experiments. The off-rate assay used evaluates the dissociation of previously bound peptide at defined time points (expressed as the t1/2 value). The affinity assay used measures the relative binding affinities for the MHC molecules determined by incubating candidate peptides identified in the initial peptide binding assay at increasing concentrations (expressed as quantity of peptide needed to achieve 50% binding or ED50 value).
(§2) The binding of the test peptides (Table 8) to the HLA molecules (Table 9) was performed at a concentration of 1.11×10^−4M of peptide under optimal, standardized test conditions. A control peptide was run in parallel on the same plate and at the same concentration as the test peptides. […] The level of binding is expressed as a percent of positive control peptide binding for each allele.

HLA A*0201 [2] = molecular target: T2, HLA A*0201 (Homo sapiens, UniProt P04439, D140Y/D185E/D98H/E176V/E277Q/G131W/G231S/I119V/I121R/I166T/I218V/L300P/L318F/N151K/N90K/P208A/P217A/Q86G/Q94H/R138H/R169H/T345S); assay: ITOPIA peptide binding assay; conditions: 1.11×10^−4M of peptide
Method: as §1, §2

HLA A*0301 [3] = molecular target: T3, HLA A*0301 (Homo sapiens, UniProt P04439); assay: ITOPIA peptide binding assay; conditions: 1.11×10^−4M of peptide
T3 construct: purchased
Method: as §1, §2

HLA A*1101 [4] = molecular target: T4, HLA A*1101 (Homo sapiens, UniProt P04439, A114D/D185E/E176A/F33Y/L180Q/S129P/T187R); assay: ITOPIA peptide binding assay; conditions: 1.11×10^−4M of peptide
T4 construct: purchased
Method: as §1, §2

HLA A*2402 [5] = molecular target: T5, HLA A*2402 (Homo sapiens, UniProt P04439, D101N/D140Y/D185E/E176V/E190D/F33S/G103R/G107R/I119L/I121M/I306V/K335N/L105A/L180Q/L300P/N151K/N90K/Q86E/Q94H/R106L/R138H/R89G/T104I/T345S/V100E/W191G/Y123F); assay: ITOPIA peptide binding assay; conditions: 1.11×10^−4M of peptide
Method: as §1, §2

HLA B*0702 [6] = molecular target: T6, HLA B*0702 (Homo sapiens, UniProt P01889); assay: ITOPIA peptide binding assay; conditions: 1.11×10^−4M of peptide
T6 construct: purchased
Method: as §1, §2

HLA B*0801 [7] = molecular target: T7, HLA B*0801 (Homo sapiens, UniProt P01889, A93T/A95T/D138N/E176V/E187T/K202T/Q94N/R180D/S35A/V36M/Y33D/Y91F); assay: ITOPIA peptide binding assay; conditions: 1.11×10^−4M of peptide
T7 construct: purchased
Method: as §1, §2

HLA B*1501 [8] = molecular target: T8, HLA B*1501 (Homo sapiens, UniProt P01889, A329T/A93T/A95T/C349S/D201E/D98Y/E187L/E204Q/E69M/E70A/K202T/N87E/Q94N/R155S/R180W/S121R/S35A/S48A/V306I/V36M/Y140S/Y91S); assay: ITOPIA peptide binding assay; conditions: 1.11×10^−4M of peptide
T8 construct: purchased
Method: as §1, §2

HLA A*0101 [9] = molecular target: T1, HLA A*0101; assay: Multi-parametric analysis iScore; type: binding; set-up: scale not given here; conditions: index integrating t1/2 and ED50
Method: (§3) Multi-parametric analysis was performed to integrate the half-life (t½) and ED50 parameters in an index (iScore). The iScore (Table 13) reflects the capability of a peptide to reconstitute with MHC molecules in a stable complex, defining its overall level of binding.

HLA A*0201 [10] = molecular target: T2, HLA A*0201; assay: Multi-parametric analysis iScore; type: binding; set-up: scale not given here; conditions: index integrating t1/2 and ED50
Method: as §3

HLA A*0301 [11] = molecular target: T3, HLA A*0301; assay: Multi-parametric analysis iScore; type: binding; set-up: scale not given here; conditions: index integrating t1/2 and ED50
Method: as §3

HLA A*1101 [12] = molecular target: T4, HLA A*1101; assay: Multi-parametric analysis iScore; type: binding; set-up: scale not given here; conditions: index integrating t1/2 and ED50
Method: as §3

HLA A*2402 [13] = molecular target: T5, HLA A*2402; assay: Multi-parametric analysis iScore; type: binding; set-up: scale not given here; conditions: index integrating t1/2 and ED50
Method: as §3

HLA B*0702 [14] = molecular target: T6, HLA B*0702; assay: Multi-parametric analysis iScore; type: binding; set-up: scale not given here; conditions: index integrating t1/2 and ED50
Method: as §3

HLA B*0801 [15] = molecular target: T7, HLA B*0801; assay: Multi-parametric analysis iScore; type: binding; set-up: scale not given here; conditions: index integrating t1/2 and ED50
Method: as §3

HLA B*1501 [16] = molecular target: T8, HLA B*1501; assay: Multi-parametric analysis iScore; type: binding; set-up: scale not given here; conditions: index integrating t1/2 and ED50
Method: as §3

HLA A*0201 [17] = molecular target: T2, HLA A*0201; assay: ITOPIA off-rate assay; type: binding; conditions: 37° C., one-phase exponential decay
Method: as §1
(§4) The peptides initially identified as binders were evaluated for stability based on their ability to remain bound to MHC molecules at 37° C. at time points 0, 0.5, 1, 1.5, 2, 4, 6 and 8 hours. […] The values obtained for each time point (in duplicate) are expressed (Table 11) as a percentage of the positive control. To calculate the t1/2 and goodness-of-fit, as measured by r^2, for each peptide, a one-phase exponential decay curve, with a plateau given equal to 0, was generated using […] PRISM software.

HLA A*2402 [18] = molecular target: T5, HLA A*2402; assay: ITOPIA off-rate assay; type: binding; conditions: 37° C., one-phase exponential decay
Method: as §1, §4

Row | Substance | level of binding, percent of positive control peptide binding (HLA A*0101 [1]) | level of binding, percent of positive control peptide binding (HLA A*0201 [2]) | level of binding, percent of positive control peptide binding (HLA A*0301 [3]) | level of binding, percent of positive control peptide binding (HLA A*1101 [4]) | level of binding, percent of positive control peptide binding (HLA A*2402 [5]) | level of binding, percent of positive control peptide binding (HLA B*0702 [6]) | level of binding, percent of positive control peptide binding (HLA B*0801 [7]) | level of binding, percent of positive control peptide binding (HLA B*1501 [8]) | iScore (HLA A*0101 [9]) | iScore (HLA A*0201 [10]) | iScore (HLA A*0301 [11]) | iScore (HLA A*1101 [12]) | iScore (HLA A*2402 [13]) | iScore (HLA B*0702 [14]) | iScore (HLA B*0801 [15]) | iScore (HLA B*1501 [16]) | A*0201 t1/2 (HLA A*0201 [17]) | A*2402 t1/2 (HLA A*2402 [18])
1 | 70 (VPLTEEAEL; HIV) [compound 70] | 1% of positive control | 5% of positive control | 0% of positive control | 1% of positive control | 6% of positive control | 4% of positive control | 4% of positive control | 4% of positive control | 0 | 0 | 0 | 0 | 0 | 0 | 0 | 0 | – | –
2 | 155 (HNEWTLELL; HIV) [compound 155] | 0% of positive control | 5% of positive control | 0% of positive control | 1% of positive control | 13% of positive control | 1% of positive control | 3% of positive control | 0% of positive control | 0 | 0 | 0 | 0 | 0 | 0 | 0 | 0 | – | –
3 | ALFYKLDVV [compound 72] | 4% of positive control | 80% of positive control | 5% of positive control | 1% of positive control | 14% of positive control | 3% of positive control | 3% of positive control | 4% of positive control | 0 | 0.484 | 0 | 0 | 0 | 0 | 0 | 0 | 4.0 h | –
4 | VTLTEEAEL [compound 156] | 1% of positive control | 26% of positive control | 0% of positive control | 1% of positive control | 11% of positive control | 0% of positive control | 4% of positive control | 7% of positive control | 0 | 0.110 | 0 | 0 | 0 | 0 | 0 | 0 | 1.2 h | –
5 | YNEWTLELL [compound 22] | 0% of positive control | 7% of positive control | 0% of positive control | 1% of positive control | 35% of positive control | 2% of positive control | 3% of positive control | 0% of positive control | 0 | 0 | 0 | 0 | 0.071 | 0 | 0 | 0 | – | 1.5 h
